Experimental data published in US6083932A, “Pharmaceutical compositions derived from ginseng and methods of treatment using same” (CV Technologies Inc., priority 1998, dated 2000).

Columns and labels:
[1] = test system: 5-hydroxytryptamine; conditions: rat and mouse brain; Zhang et al 1990; cited from earlier work
[2] = target: T1, monoamine oxidase-A (Rattus norvegicus, UniProt P21396); assay: in vitro monoamine oxidase-A inhibiting activity (radiochemical, 5-hydroxytryptamine substrate); assay type: biochemical; conditions: read-out: % MAO-A Inhibition; for inhibition at 1000 µg/mL: 1.0 mg/ml; for inhibition at 10000 µg/mL: 10 mg/ml
T1 construct: homogenates of rat brain; from tissue; host or cells: rat brain homogenate
T1 sequence (P21396 1-526): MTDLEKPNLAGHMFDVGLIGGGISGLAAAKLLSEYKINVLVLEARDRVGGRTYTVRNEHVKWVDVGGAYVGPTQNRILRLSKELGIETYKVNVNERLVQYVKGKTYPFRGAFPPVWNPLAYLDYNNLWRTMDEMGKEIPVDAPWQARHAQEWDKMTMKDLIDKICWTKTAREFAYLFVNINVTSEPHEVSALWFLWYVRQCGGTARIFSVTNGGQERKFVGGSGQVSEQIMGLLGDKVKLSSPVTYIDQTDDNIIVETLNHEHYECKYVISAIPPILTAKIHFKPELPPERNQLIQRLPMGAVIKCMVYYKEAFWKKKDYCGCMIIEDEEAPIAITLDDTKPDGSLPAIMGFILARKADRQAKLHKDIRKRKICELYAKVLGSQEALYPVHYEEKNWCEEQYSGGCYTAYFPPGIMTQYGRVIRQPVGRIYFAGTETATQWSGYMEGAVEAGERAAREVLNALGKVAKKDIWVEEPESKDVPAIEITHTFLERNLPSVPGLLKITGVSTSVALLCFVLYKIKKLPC
Description: Example 1 is a study of the effects of several extracts of HT1001, PQ4, PQ5, PQ6 and pure ginsenosides, on monoamine oxidase A (MAO A) and monoamine oxidase B (MAO B) activity in vitro.
HT-1001, related extracts and pure ginsenosides were evaluated for in vitro monoamine oxidase-A and monoamine oxidase-B inhibiting activity using the radiochemical procedure of Lyles and Callingham, Biochem. Pharmacol. 31: 1417-1424 (1982), employing either radiolabelled 5-hydroxytryptamine or β-phenylethylamine as substrates for monoamine oxidase-A (MAO-A) or monoamine oxidase-B (MAO-B) respectively. Various concentrations of the compounds of interest were incubated in appropriately diluted homogenates of rat brain in a 0.2 M potassium phosphate buffer. After a 15 minute preincubation period the reaction was initiated by the addition of substrate. Incubations proceded at 37° C. for 10 minutes. Incubation was terminated by the addition of acid and the radiolabelled products (5-hydroxyindoleacetic acid, 5-hydroxyindoleacetaldehyde or phenylacetic acid, phenylacetaldehyde) were extracted and quantified by liquid scintillation counting procedures. Incubations were done in triplicate and incubations including pheneizine a known MAO inhibitor were included as controls and for comparison. The percent inhibition of monoamine oxidase-A or monoamine oxidase-B activity compared to controls containing no experimental material was calculated.

[3] = test system: PC12 cells; assay: neurite outgrowth in PC12 cells; assay type: cell-based; conditions: seven days after treatment
Description: A study of the neurotrophic effects of HT1001 and some pure ginsenosides was conducted. A new mechanism of action for HT1001 was shown, which is the stimulation of neurite outgrowth in a PC12 cell line. […] The beneficial effects (prevention/treatment) of HT-1001 may apply to degenerative diseases such as senile dementia, Parkinson's disease, Alzheimer's disease, multi-infarct dementia, etc. Alzheimer's disease (AD) is associated with degeneration of cholinergic nerve tracts including projections from the basal forebrain to the cortex and hippocampus. The PC12 (pheochromocytoma) cell line is one of the models for the study of the development of these nerve tracts. The cell line is phenotypically a chromaffin cell line, but can be induced to express adrenergic and cholinergic markers as well. This model has the advantages that (1) it is an immortalized cell line, (2) it is sensitive to, but not dependent upon, NGF for survival, and (3) it shares many properties in common with the central cholinergic neurons of the basal forebrain. It has been noted that PC12 cells are not sensitive to all of the trophic factors that central cholinergic neurons respond to, whereas central cholinergic neurons respond to all trophic factors that PC12 cells respond to. […] The cellular responses to Nerve Growth Factor (NGF) and samples were determined by counting the number of cells containing processes in PC12 cells. […] The cells and neurites were counted as follows: The cells with circular or global shape and no neurite outgrowth were scored as 0 (S0). […] Cells with more than two small neurites on the cell bodies were scored as S2. Cells with one or two neurites with a length of at least two times diameter as their body were scored as S3. Cells with more than two long neurites were scored as S4. The neurite index was calculated as below: Neurite index (In)=total neurite Score (ΣS)/total cell number (.[…] is the cell number of every cell field. The test samples included: […]

inhibition at 1000 µg/mL [2] [%] | inhibition at 10000 µg/mL [2] [%] | Structure (SMILES) | levels of 5-hydroxytryptamine and 5-hydroxyindoleacetic acid [1] | neurite outgrowth (FIG. 31) [3]
-6.9 | 7.1 | CC(C)=CCC[C@](C)(O[C@@H]1O[C@H](CO[C@@H]2O[C@H](CO)[C@@H](O)[C@H](O)[C@H]2O)[C@@H](O)[C@H](O)[C@H]1O)[C@H]1CC[C@]2(C)[C@@H]1[C@H](O)C[C@@H]1[C@@]3(C)CC[C@H](O[C@@H]4O[C@H](CO)[C@@H](O)[C@H](O)[C@H]4O[C@@H]4O[C@H](CO)[C@@H](O)[C@H](O)[C@H]4O)C(C)(C)[C@@H]3CC[C@]12C [Rb1, ginsenoside Rb1] | decrease the levels | significantly increased neurite outgrowth
-10.8 | 5.1 | CC(C)=CCC[C@](C)(O[C@@H]1O[C@H](CO)[C@@H](O)[C@H](O)[C@H]1O)[C@H]1CC[C@]2(C)[C@@H]1[C@H](O)C[C@@H]1[C@@]3(C)CC[C@H](O)C(C)(C)[C@@H]3[C@@H](O[C@@H]3O[C@H](CO)[C@@H](O)[C@H](O)[C@H]3O)C[C@]12C [Rg1, ginsenoside Rg1] | decrease the levels | significantly increased neurite outgrowth
